Test results reported in article PMC7886321, “Deciphering the LRRK code: LRRK1 and LRRK2 phosphorylate distinct Rab proteins and are regulated by diverse mechanisms” (Biochemical Journal, 2021).

Tests used:
LRRK2 = target: T1, LRRK2 (Homo sapiens, UniProt Q5S007); experiment: HEK293 overexpression, pRab10 Thr73 and pSer935 LRRK2 immunoblot; assay type: cell-based
T1 construct: wild type LRRK2 overexpressed in HEK293 cells

LRRK1 = target: T2, LRRK1 (Homo sapiens, UniProt Q38SD2); experiment: in vitro kinase assay, Rab7A Ser72 phosphorylation by immunoblot, […] ATP; assay type: biochemical
T2 construct: recombinant LRRK1, residues 28 to 2015
T2 sequence (Q38SD2 28-2015): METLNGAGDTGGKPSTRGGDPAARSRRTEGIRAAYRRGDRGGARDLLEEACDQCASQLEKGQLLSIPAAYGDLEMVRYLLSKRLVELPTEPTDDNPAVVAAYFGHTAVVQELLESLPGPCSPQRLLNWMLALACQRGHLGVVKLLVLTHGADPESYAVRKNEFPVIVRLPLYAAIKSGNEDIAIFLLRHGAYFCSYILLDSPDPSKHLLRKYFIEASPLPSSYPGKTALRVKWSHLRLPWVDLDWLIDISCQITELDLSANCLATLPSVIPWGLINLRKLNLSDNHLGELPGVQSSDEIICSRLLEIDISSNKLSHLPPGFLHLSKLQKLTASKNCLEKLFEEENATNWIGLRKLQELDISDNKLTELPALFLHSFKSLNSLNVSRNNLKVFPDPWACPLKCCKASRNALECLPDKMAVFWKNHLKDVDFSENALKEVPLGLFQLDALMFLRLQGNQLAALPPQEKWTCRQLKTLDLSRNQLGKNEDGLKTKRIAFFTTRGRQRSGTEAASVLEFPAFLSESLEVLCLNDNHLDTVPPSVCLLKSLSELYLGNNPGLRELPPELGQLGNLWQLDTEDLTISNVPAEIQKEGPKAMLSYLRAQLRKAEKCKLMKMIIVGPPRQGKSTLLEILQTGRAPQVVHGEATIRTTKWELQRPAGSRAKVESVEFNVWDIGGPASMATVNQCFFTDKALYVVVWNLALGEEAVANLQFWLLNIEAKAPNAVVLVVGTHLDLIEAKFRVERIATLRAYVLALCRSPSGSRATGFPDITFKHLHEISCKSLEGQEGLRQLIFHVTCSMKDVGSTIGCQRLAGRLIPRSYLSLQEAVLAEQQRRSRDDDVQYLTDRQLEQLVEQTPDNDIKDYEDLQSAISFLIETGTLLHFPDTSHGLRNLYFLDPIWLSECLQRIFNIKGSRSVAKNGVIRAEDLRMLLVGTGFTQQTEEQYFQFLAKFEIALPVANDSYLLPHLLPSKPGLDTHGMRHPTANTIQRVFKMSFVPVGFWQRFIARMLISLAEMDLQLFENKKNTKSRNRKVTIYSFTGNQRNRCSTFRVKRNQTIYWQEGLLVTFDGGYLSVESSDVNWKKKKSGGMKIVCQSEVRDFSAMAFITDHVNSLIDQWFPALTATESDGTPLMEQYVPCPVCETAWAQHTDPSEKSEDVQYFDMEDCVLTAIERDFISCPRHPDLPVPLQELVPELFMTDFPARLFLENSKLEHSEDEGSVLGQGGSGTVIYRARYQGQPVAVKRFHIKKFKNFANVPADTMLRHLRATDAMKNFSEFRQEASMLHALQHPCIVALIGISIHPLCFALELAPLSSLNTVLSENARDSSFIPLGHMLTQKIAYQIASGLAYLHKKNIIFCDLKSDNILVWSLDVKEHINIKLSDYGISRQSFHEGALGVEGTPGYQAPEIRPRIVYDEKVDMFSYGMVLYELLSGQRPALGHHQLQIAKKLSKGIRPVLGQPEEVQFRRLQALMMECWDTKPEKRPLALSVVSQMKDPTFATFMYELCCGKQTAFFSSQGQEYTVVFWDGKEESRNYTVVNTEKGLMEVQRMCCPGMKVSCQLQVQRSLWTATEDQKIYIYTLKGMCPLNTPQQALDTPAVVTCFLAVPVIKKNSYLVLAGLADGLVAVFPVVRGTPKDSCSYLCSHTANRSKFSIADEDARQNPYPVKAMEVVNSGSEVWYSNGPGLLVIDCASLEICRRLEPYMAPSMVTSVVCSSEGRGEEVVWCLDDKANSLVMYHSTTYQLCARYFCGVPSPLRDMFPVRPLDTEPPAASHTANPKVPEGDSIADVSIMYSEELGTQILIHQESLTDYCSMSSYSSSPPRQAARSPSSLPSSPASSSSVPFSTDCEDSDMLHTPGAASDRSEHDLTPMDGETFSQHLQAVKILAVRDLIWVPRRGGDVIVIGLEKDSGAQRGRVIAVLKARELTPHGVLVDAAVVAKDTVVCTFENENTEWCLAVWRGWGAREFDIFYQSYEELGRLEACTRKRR

T1 sequence (Q5S007 whole entry): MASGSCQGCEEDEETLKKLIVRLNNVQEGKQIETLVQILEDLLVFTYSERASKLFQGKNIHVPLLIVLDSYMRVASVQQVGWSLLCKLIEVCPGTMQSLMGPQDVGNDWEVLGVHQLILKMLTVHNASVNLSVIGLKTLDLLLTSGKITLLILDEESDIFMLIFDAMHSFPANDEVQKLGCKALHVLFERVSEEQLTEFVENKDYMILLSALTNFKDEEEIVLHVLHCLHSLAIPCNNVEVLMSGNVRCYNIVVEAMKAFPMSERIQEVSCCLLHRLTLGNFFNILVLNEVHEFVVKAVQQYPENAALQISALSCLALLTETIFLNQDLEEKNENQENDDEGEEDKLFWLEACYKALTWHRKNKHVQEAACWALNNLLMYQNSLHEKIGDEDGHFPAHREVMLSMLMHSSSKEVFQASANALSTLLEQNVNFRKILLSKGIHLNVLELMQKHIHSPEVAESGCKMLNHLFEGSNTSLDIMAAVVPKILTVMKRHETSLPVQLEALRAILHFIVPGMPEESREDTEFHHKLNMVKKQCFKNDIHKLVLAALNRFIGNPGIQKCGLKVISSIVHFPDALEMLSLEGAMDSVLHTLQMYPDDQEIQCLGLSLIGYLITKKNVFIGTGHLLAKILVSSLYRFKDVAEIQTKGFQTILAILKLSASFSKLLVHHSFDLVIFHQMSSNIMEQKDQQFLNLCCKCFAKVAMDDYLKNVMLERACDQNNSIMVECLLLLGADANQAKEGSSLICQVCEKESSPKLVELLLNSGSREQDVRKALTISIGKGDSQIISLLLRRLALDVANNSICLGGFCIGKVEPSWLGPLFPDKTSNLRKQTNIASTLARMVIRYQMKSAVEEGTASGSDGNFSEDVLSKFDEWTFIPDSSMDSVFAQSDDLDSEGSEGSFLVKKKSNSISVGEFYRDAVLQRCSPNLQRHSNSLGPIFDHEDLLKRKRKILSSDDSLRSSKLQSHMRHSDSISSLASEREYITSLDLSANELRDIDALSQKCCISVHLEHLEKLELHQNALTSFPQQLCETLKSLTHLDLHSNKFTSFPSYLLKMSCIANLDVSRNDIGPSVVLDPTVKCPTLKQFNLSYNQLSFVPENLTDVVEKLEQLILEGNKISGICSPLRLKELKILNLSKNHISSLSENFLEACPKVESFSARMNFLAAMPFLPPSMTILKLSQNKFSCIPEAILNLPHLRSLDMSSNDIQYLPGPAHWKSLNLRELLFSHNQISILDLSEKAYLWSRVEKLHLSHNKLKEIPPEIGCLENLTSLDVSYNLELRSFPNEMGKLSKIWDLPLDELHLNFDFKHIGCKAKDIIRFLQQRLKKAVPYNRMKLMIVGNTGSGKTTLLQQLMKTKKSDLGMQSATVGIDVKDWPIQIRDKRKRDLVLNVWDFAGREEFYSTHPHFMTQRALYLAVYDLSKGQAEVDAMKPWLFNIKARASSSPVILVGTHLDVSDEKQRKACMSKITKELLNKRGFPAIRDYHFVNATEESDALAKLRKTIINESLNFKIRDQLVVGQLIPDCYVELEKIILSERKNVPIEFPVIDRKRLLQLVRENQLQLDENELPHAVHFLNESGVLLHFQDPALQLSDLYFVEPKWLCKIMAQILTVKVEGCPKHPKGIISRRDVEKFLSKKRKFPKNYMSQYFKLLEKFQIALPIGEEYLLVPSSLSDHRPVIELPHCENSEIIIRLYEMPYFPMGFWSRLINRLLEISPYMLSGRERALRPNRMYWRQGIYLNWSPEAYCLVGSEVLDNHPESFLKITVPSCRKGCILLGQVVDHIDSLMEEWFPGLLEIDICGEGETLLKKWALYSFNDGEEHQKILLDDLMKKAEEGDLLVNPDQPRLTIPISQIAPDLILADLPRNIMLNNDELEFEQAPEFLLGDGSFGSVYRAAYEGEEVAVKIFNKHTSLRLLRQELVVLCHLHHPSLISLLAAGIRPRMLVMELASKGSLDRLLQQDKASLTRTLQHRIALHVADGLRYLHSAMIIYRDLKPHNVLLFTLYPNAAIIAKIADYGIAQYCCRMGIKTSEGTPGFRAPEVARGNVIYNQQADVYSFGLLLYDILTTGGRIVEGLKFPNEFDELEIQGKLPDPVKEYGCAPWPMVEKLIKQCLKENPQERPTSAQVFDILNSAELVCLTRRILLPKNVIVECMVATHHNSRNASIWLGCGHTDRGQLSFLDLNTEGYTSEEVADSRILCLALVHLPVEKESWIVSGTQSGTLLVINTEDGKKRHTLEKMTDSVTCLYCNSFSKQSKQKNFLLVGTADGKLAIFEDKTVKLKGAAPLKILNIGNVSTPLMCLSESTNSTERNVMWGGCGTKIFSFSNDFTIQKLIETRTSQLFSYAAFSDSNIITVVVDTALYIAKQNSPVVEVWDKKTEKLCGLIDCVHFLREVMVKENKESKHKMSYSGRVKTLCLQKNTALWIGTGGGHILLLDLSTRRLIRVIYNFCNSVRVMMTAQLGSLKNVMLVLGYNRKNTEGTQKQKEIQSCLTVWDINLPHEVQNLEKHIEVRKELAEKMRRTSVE

SMILES: O=C(Nc1cccnc1)c1cc(-c2ccnc(F)c2)ccc1OCc1ccccc1 [GSK2578215A]
- HEK293 overexpression, pRab10 Thr73 and pSer935 LRRK2 immunoblot (LRRK2): All inhibitors ablated LRRK2-mediated phosphorylation of Rab10 at Thr73 and LRRK2 at Ser935 in parallel experiments.

SMILES: Cc1ccc(C(=O)Nc2ccc(CN3CCN(C)CC3)c(C(F)(F)F)c2)cc1C#Cc1cnc2[nH]ncc2c1 [GZD-824]
- IC50 (LRRK1): ~20 nM

SMILES: COc1cc(C(=O)N2CCC(N3CCN(C)CC3)CC2)ccc1Nc1ncc2c(n1)N(C)c1ccccc1C(=O)N2C [LRRK2-IN1]
- HEK293 overexpression, pRab10 Thr73 and pSer935 LRRK2 immunoblot (LRRK2): All inhibitors ablated LRRK2-mediated phosphorylation of Rab10 at Thr73 and LRRK2 at Ser935 in parallel experiments.
